Assay results: patent US8754226B2, “Piperidinyl-substituted lactams as GPR119 modulators” (Array BioPharma Inc., priority 2010, dated 2014)

Tested on: modified version of the GPR119 receptor (94% identity to human receptor)
Assay: cAMP production assay (LANCE cAMP kit, TR-FRET) in HEK-293 cells
Assay type: cell-based
Conditions: for cAMP production in HEK-293 cells: HEK-293 cells stably expressing modified GPR119, test compounds 0.2 nM to 10 μM, one-hour incubation at ambient temperature; for Fold over baseline: increase in cAMP relative to basal levels, agonist activity if 1.5-fold or greater
In short: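 Doxycycline-induced (1 μg/mL, overnight) HEK-293 cells expressing modified GPR119 were thawed, 2000 cells/well, and exposed to compounds (0.2 nM-10 μM final, 0.5% DMSO) for 1 h at ambient temperature in HBSS/HEPES/BSA. cAMP was measured by LANCE TR-FRET against a standard curve. Agonism was defined as ≥1.5-fold over basal.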

Row | SMILES | cAMP production in HEK-293 cells [nmol] | Fold over baseline
1 | CS(=O)(=O)c1cc(F)c(O[C@H]2CCN(C3CCN(c4ncc(C(F)(F)F)cc4F)CC3)C2=O)cc1F [Example 166, (S)-3-(2,5-difluoro-4-(methylsulfonyl)phenoxy)-1-(1-(3-fluoro-5-(trifluoromethyl)pyridin-2-yl)piperidin-4-yl)pyrrolidin-2-one] | 15.3 | 3.6
2 | CS(=O)(=O)c1ccc(NC2CCN(C3CCN(c4ccc(-c5ccccc5)cn4)CC3)C2=O)c(F)c1 (stereo not drawn) [Example 25, 3-(2-fluoro-4-(methylsulfonyl)phenylamino)-1-(1-(5-phenylpyridin-2-yl)piperidin-4-yl)pyrrolidin-2-one] | 11.6 | 2.9
3 | CCCCCCCCCCc1cnc(N2CCC(N3CCC[C@H](Nc4cc(F)c(S(C)(=O)=O)cc4F)C3=O)CC2)nc1 [Example 46, (S)-1′-(5-decylpyrimidin-2-yl)-3-(2,5-difluoro-4-(methylsulfonyl)phenylamino)-[1,4′-bipiperidin]-2-one] | 10.7 | 2.2
4 | O=C1[C@@H](Nc2ccc(C(F)(F)F)cn2)CCN1C1CCN(c2cnc(Cl)cn2)CC1 [Example 23, (S)-1-(1-(5-chloropyrazin-2-yl)piperidin-4-yl)-3-(5-(trifluoromethyl)pyridin-2-ylamino)pyrrolidin-2-one] | 13.6 | 3.0
5 | CS(=O)(=O)c1cc(F)c(N[C@H]2CCN(C3CCN(c4ncc(Cl)cc4Cl)CC3)C2=O)cc1F [Example 113, (S)-1-(1-(3,5-dichloropyridin-2-yl)piperidin-4-yl)-3-(2,5-difluoro-4-(methylsulfonyl)phenyl-amino)pyrrolidin-2-one] | 29.1 | 2.1
6 | CS(=O)(=O)c1ccc(N[C@H]2CCCN(C3CCN(c4cnc(Cl)cn4)CC3)C2=O)c(F)c1 [Example 44, (S)-1′-(5-chloropyrazin-2-yl)-3-(2-fluoro-4-(methylsulfonyl)phenylamino)-[1,4′-bipiperidin]-2-one] | 20.4 | 4.1
7 | CS(=O)(=O)c1ccc(N[C@H]2CCN(C3CCN(c4ccc(C(F)(F)F)cn4)CC3)C2=O)c(F)c1 [Example 99, (S)-3-(2-fluoro-4-(methyl-sulfonyl)phenylamino)-1-(1-(5-(trifluoromethyl)pyridin-2-yl)piperidin-4-yl)pyrrolidin-2-one] | 12.4 | 3.5
8 | CS(=O)(=O)c1cc(F)c(N[C@H]2CCN(C3CCN(c4ncc(Cl)cn4)CC3)C2=O)cc1F [Example 6, (S)-3-(2,5-difluoro-4-(methyl-sulfonyl)phenylamino)-1-(1-(5-chloropyrimidin-2-yl)piperidin-4-yl)pyrrolidin-2-one] | 9.2 | 1.8
9 | CCc1cnc(N2CCC(N3CC[C@H](Oc4ccc(-n5nnnc5C)cc4)C3=O)CC2)nc1 [Example 70, (S)-1-(1-(5-ethylpyrimidin-2-yl)piperidin-4-yl)-3-(4-(5-methyl-1H-tetrazol-1-yl)phenoxy)pyrrolidin-2-one] | 6.1 | 1.8
10 | CS(=O)(=O)c1cc(F)c(O[C@H]2CCCN(C3CCN(c4ncc(C(F)(F)F)cc4F)CC3)C2=O)cc1F [Example 163, (S)-3-(2,5-difluoro-4-(methylsulfonyl)phenoxy)-1′-(3-fluoro-5-(trifluoromethyl)pyridin-2-yl)-[1,4′-bipiperidin]-2-one] | 18.3 | 3.9
11 | Cc1ccccc1-c1cnc(N2CCC(N3CCC[C@H](Nc4cc(F)c(S(C)(=O)=O)cc4F)C3=O)CC2)cn1 [Example 61, (S)-3-(2,5-difluoro-4-(methylsulfonyl)phenylamino)-1′-(5-o-tolylpyrazin-2-yl)-[1,4′-bipiperidin]-2-one] | 19.6 | 3.1
12 | O=C(c1ccc(O[C@H]2CCN(C3CCN(c4ncc(Cl)cc4F)CC3)C2=O)c(F)c1)N1CC[C@@H](O)C1 [Example 155, (S)-1-(1-(5-chloro-3-fluoropyridin-2-yl)piperidin-4-yl)-3-(2-fluoro-4-((R)-3-hydroxypyrrolidine-1-carbonyl)phenoxy)pyrrolidin-2-one] | 13.4 | 2.5
13 | CS(=O)(=O)c1ccc(N[C@H]2CCCN(C3CCN(c4ncc(C(F)(F)F)cc4Cl)CC3)C2=O)c(F)c1 [Example 145, (S)-1′-(3-chloro-5-(trifluoromethyl)pyridin-2-yl)-3-(2-fluoro-4-(methylsulfonyl)phenyl-amino)-1,4′-bipiperidin-2-one] | 28.3 | 2.1
14 | CS(=O)(=O)c1ccc(O[C@H]2CCN(C3CCN(c4ncc(C(F)(F)F)cc4F)CC3)C2=O)c(F)c1 [Example 138, (S)-3-(2-fluoro-4-(methyl-sulfonyl)phenoxy)-1-(1-(3-fluoro-5-(trifluoro-methyl)pyridin-2-yl)piperidin-4-yl) pyrrolidin-2-one] | 38.6 | 6.7
15 | CS(=O)(=O)c1ccc(N[C@H]2CCN(C3CCN(c4cnc(Br)cn4)CC3)C2=O)c(F)c1 [Example 12, (S)-1-(1-(5-bromopyrazin-2-yl)piperidin-4-yl)-3-(2-fluoro-4-(methylsulfonyl)phenyl-amino)pyrrolidin-2-one] | 23.4 | 3.8
16 | O=C1C(Oc2ccc(-n3cnnn3)nc2)CCN1C1CCN(c2cnc(Cl)cn2)CC1 (stereo not drawn) [Example 67, 3-(6-(1H-tetrazol-1-yl)pyridin-3-yloxy)-1-(1-(5-chloropyrazin-2-yl)piperidin-4-yl)pyrrolidin-2-one] | 15.6 | 2.9
17 | CS(=O)(=O)c1ccc(N[C@H]2CCN(C3CCN(c4cnc(C(F)(F)F)cn4)CC3)C2=O)c(F)c1 [Example 13, (S)-3-(2-fluoro-4-(methylsulfonyl)phenylamino)-1-(1-(5-(trifluoromethyl)pyrazin-2-yl)piperidin-4-yl)pyrrolidin-2-one] | 24.8 | 4.4
18 | CC1(C)CN(c2cnc(Cl)cn2)CCC1N1CC[C@H](Nc2ccc(S(C)(=O)=O)cc2F)C1=O (stereo partly drawn) [Example 162, (3S)-1-(1-(5-chloropyrazin-2-yl)-3,3-dimethylpiperidin-4-yl)-3-(2-fluoro-4-(methylsulfonyl)phenylamino)pyrrolidin-2-one] | 16.2 | 2.8
19 | CS(=O)(=O)c1ccc(N[C@H]2CCN(C3CCN(c4cnc(C#N)cn4)CC3)C2=O)c(F)c1 [Example 14, (S)-5-(4-(3-(2-fluoro-4-(methylsulfonyl)phenylamino)-2-oxopyrrolidin-1-yl)piperidin-1-yl)pyrazine-2-carbonitrile] | 32.3 | 5.5
20 | CS(=O)(=O)c1cc(F)c(N[C@H]2CCCN(C3CCN(c4ncc(I)cn4)CC3)C2=O)cc1F [Example 47, (S)-3-(2,5-difluoro-4-(methylsulfonyl)phen-ylamino)-1′-(5-iodopyrimidin-2-yl)-[1,4′-bipiperidin]-2-one] | 9.3 | 2.0
21 | CS(=O)(=O)c1cc(F)c(N[C@H]2CCN(C3CCN(c4cnc(Cl)cn4)CC3)C2=O)cc1F [Example 3, (S)-1-(1-(5-chloropyrazin-2-yl)piperidin-4-yl)-3-(2,5-difluoro-4-(methylsulfonyl)phenylamino)pyrrolidin-2-one] | 23.2 | 5.0
22 | CCc1ccc(N2CCC(N3CCC(Nc4ccc(S(C)(=O)=O)cc4F)C3=O)CC2)nc1 (stereo not drawn) [Example 24, 1-(1-(5-ethylpyridin-2-yl)piperidin-4-yl)-3-(2-fluoro-4-(methylsulfonyl)phenylamino)pyrrolidin-2-one] | 24.8 | 2.9
23 | COC(=O)c1ccc(O[C@H]2CCN(C3CCN(c4ncc(C(F)(F)F)cc4Cl)CC3)C2=O)c(F)c1 [Example 140, (S)-methyl 4-(1-(1-(3-chloro-5-(trifluoro-methyl)pyridin-2-yl)piperidin-4-yl)-2-oxopyrrolidin-3-yloxy)-3-fluorobenzoate] | 12.2 | 2.7
24 | CCc1cnc(N2CCC(N3CC[C@H](Oc4cc(C)c(S(C)(=O)=O)cc4F)C3=O)CC2)nc1 [Example 96, (S)-1-(1-(5-ethylpyrimidin-2-yl)piperidin-4-yl)-3-(2-fluoro-5-methyl-4-(methylsulfonyl)phenoxy)pyrrolidin-2-one] | 31.7 | 3.5
25 | CS(=O)(=O)c1ccc(O[C@H]2CCN(C3CCN(c4ncc(Cl)cc4F)CC3)C2=O)cn1 [Example 144, (S)-1-(1-(5-chloro-3-fluoropyridin-2-yl)piperidin-4-yl)-3-(6-(methylsulfonyl)pyridin-3-yloxy)pyrrolidin-2-one] | 19.6 | 2.9
26 | CCc1ccc(N2CCC(N3CC[C@H](Nc4ccc(S(C)(=O)=O)cc4F)C3=O)CC2)nc1 [Example 27A, (S)-1-(1-(5-Ethylpyridin-2-yl)piperidin-4-yl)-3-(2-fluoro-4-(methylsulfonyl)phenylamino)pyrrolidin-2-one] | 12.9 | 2.9
27 | Cc1nc(S(C)(=O)=O)ccc1N[C@H]1CCN(C2CCN(c3cnc(Cl)cn3)CC2)C1=O [Example 133, (S)-1-(1-(5-chloro-pyrazin-2-yl)piperidin-4-yl)-3-(2-methyl-6-(methylsulfonyl)pyridin-3-ylamino)pyrrolidin-2-one] | 27.9 | 2.2
